According to patent US8343993B2, “Hydroxyalkyl substituted imidazonaphthyridines” (3M Innovative Properties Company, priority 2005, dated 2013):
Counter-ions that a name gives are not always drawn. Like-named read-outs stand apart in the source and are kept apart here.

Columns and labels:
[1] = test system: IFN-α; assay: Cytokine induction in human cells (PBMC): IFN-α secreted into culture media, ELISA; assay type: cell-based; settings: median where several experiments; for minimal effective concentration: 30-0.014 μM, lowest concentration inducing over 20 pg/mL, read-out: Minimum Effective Concentration IFN
Description: (§1) An in vitro human blood cell system is used to assess cytokine induction. Activity is based on the measurement of interferon (α) and tumor necrosis factor (α) (IFN-α, and TNF-α, respectively) secreted into culture media as described by Testerman et. al. in “Cytokine Induction by the Immunomodulators Imiquimod and S-27609”, Journal of Leukocyte Biology, 58, 365-372 (September, 1995).
(§2) Whole blood from healthy human donors is collected by venipuncture into vacutainer tubes or syringes containing EDTA. Peripheral blood mononuclear cells (PBMC) are separated from whole blood by density gradient centrifugation using HISTOPAQUE-1077 (Sigma, St. Louis, Mo.) or Ficoll-Paque Plus (Amersham Biosciences Piscataway, N.J.). Blood is diluted 1:1 with Dulbecco's Phosphate Buffered Saline (DPBS) or Hank's Balanced Salts Solution (HBSS). Alternately, whole blood is placed in Accuspin (Sigma) or LeucoSep (Greiner Bio-One, Inc., Longwood Fla.) centrifuge frit tubes containing density gradient medium. The PBMC layer is collected and washed twice with DPBS or HBSS and re-suspended at 4×10^6 cells/mL in RPMI complete. The PBMC suspension is added to 96 well flat bottom sterile tissue culture plates containing an equal volume of RPMI complete media containing test compound.
(§3) The compounds are solubilized in dimethyl sulfoxide (DMSO). The DMSO concentration should not exceed a final concentration of 1% for addition to the culture wells. The compounds are generally tested at concentrations ranging from 30-0.014 μM. Controls include cell samples with media only, cell samples with DMSO only (no compound), and cell samples with reference compound.
(§4) The solution of test compound is added at 60 μM to the first well containing RPMI complete and serial 3 fold dilutions are made in the wells. The PBMC suspension is then added to the wells in an equal volume, bringing the test compound concentrations to the desired range (usually 30-0.014 μM). The final concentration of PBMC suspension is 2×10^6 cells/mL. The plates are covered with sterile plastic lids, mixed gently and then incubated for 18 to 24 hours at 37° C. in a 5% carbon dioxide atmosphere.
(§5) Following incubation the plates are centrifuged for 10 minutes at 1000 rpm (approximately 200×g) at 4° C. The cell-free culture supernatant is removed and transferred to sterile polypropylene tubes. Samples are maintained at −30 to −70° C. until analysis. The samples are analyzed for IFN-α by ELISA and for TNF-α by IGEN/BioVeris Assay.
IFN-α concentration is determined with a human multi-subtype colorimetric sandwich ELISA (Catalog Number 41105) from PBL Biomedical Laboratories, Piscataway, N.J. Results are expressed in pg/mL.
Analysis of the data has two steps. First, the greater of the mean DMSO (DMSO control wells) or the experimental background (usually 20 pg/mL for IFN-α and 40 pg/mL for TNF-α) is subtracted from each reading. If any negative values result from background subtraction, the reading is reported as “*” and is noted as not reliably detectable. In subsequent calculations and statistics, “*” is treated as a zero. Second, all, background subtracted values are multiplied by a single adjustment ratio to decrease experiment to experiment variability. The adjustment ratio is the area of the reference compound in the new experiment divided by the expected area of the reference compound based on the past 61 experiments (unadjusted readings). […] The reference compound used is 2-[4-amino-2-ethoxymethyl-6,7,8,9-tetrahydro-α,α-dimethyl-1H-imidazo[4,5-c]quinolin-1-yl]ethanol hydrate (U.S. Pat. No. 5,352,784; Example 91) and the expected area is the sum of the median dose values from the past 61 experiments.
The minimum effective concentration is calculated based on the background-subtracted, reference-adjusted results for a given experiment and compound. […]

[2] = test system: TNF-α; assay: Cytokine induction in human cells (PBMC): TNF-α secreted into culture media, ORIGEN M-Series immunoassay; assay type: cell-based; settings: median where several experiments; for minimal effective concentration: 30-0.014 μM, lowest concentration inducing over 40 pg/mL, read-out: Minimum Effective Concentration TNF; for Maximal Response TNF: Table 4, background-subtracted, reference-adjusted, * = below background
Description: as §1, §2, §3, §4, §5
The TNF-α concentration is determined by ORIGEN M-Series Immunoassay and read on an IGEN M-8 analyzer from BioVeris Corporation, formerly known as IGEN International, Gaithersburg, Md. The immunoassay uses a human TNF-α capture and detection antibody pair (Catalog Numbers AHC3419 and AHC3712) from Biosource International, Camarillo, Calif. Results are expressed in pg/mL.
Analysis of the data has two steps. First, the greater of the mean DMSO (DMSO control wells) or the experimental background (usually 20 pg/mL for IFN-α and 40 pg/mL for TNF-α) is subtracted from each reading. If any negative values result from background subtraction, the reading is reported as “*” and is noted as not reliably detectable. In subsequent calculations and statistics, “*” is treated as a zero. Second, all, background subtracted values are multiplied by a single adjustment ratio to decrease experiment to experiment variability. The adjustment ratio is the area of the reference compound in the new experiment divided by the expected area of the reference compound based on the past 61 experiments (unadjusted readings). […] The reference compound used is 2-[4-amino-2-ethoxymethyl-6,7,8,9-tetrahydro-α,α-dimethyl-1H-imidazo[4,5-c]quinolin-1-yl]ethanol hydrate (U.S. Pat. No. 5,352,784; Example 91) and the expected area is the sum of the median dose values from the past 61 experiments. […]

Work on CC(C)(F)Cn1c(CCO)nc2c(N)nc3cccnc3c21 [Example 15, 2-[4-Amino-1-(2-fluoro-2-methylpropyl)-1H-imidazo[4,5-c][1,5]naphthyridin-2-yl]ethanol] yielded a minimal effective concentration ([1]; Table 4, 18 to 24 hours) of 1.11 µM, a minimal effective concentration ([2]; Table 4, 18 to 24 hours) of 10 µM and a melting point of 224 to 225 °C.

Cc1nc2c(N)nc3cccnc3c2n1CC(C)C [Analog 10, 2-methyl-1-(2-methylpropyl)-1H-imidazo[4,5-c][1,5]naphthyridin-4-amine, reference compound] showed a minimal effective concentration ([1]; Table 4, 18 to 24 hours) of 0.37 µM and a minimal effective concentration ([2]; Table 4, 18 to 24 hours) of 1.11 µM.

COCCc1nc2c(N)nc3cccnc3c2n1CC(C)(C)O (as salt: hydrobromid) [Analog 2, 1-[4-amino-2-(2-methoxyethyl)-1H-imidazo[4,5-c][1,5]naphthyridin-1-yl]-2-methylpropan-2-ol] gave a melting point of 234 to 235 °C.

COCCc1nc2c(N)nc3cccnc3c2n1CC(C)(C)O [Analog 2, 1-[4-amino-2-(2-methoxyethyl)-1H-imidazo[4,5-c][1,5]naphthyridin-1-yl]-2-methylpropan-2-ol, reference compound] showed a minimal effective concentration ([1]; Table 3, 18 to 24 hours) of 0.04 µM, a minimal effective concentration ([1]; Table 4, 18 to 24 hours) of 0.04 µM and a minimal effective concentration ([2]; Table 3, 18 to 24 hours) of 0.37 µM. It also gave a minimal effective concentration ([2]; Table 4, 18 to 24 hours) of 0.37 µM.

With CCc1nc2c(N)nc3cccnc3c2n1CC(C)(C)O [Analog 4, 1-(4-amino-2-ethyl-1H-imidazo[4,5-c][1,5]naphthyridin-1-yl)-2-methylpropan-2-ol, reference compound] the minimal effective concentration ([1]; Table 4, 18 to 24 hours) was 0.37 µM and the minimal effective concentration ([2]; Table 4, 18 to 24 hours) was 3.33 µM.

Work on CS(=O)(=O)NCCCCn1c(CCO)nc2c(N)nc3cccnc3c21 [Example 3, N-{4-{4-Amino-2-(2-hydroxyethyl)-1H-imidazo[4,5-c][1,5]naphthyridin-1-yl]butyl}methanesulfonamide] yielded a minimal effective concentration ([1]; Table 4, 18 to 24 hours) of 1.11 µM, a minimal effective concentration ([2]; Table 4, 18 to 24 hours) of 30 µM and a melting point of 194 to 195 °C.

CC(C)(O)Cn1c(CCO)nc2c(N)nc3cccnc3c21 [Example 7, 1-[4-Amino-2-(2-hydroxyethyl)-1H-imidazo[4,5-c][1,5]naphthyridin 1-yl]-2-methylpropan-2-ol] gave a minimal effective concentration ([1]; Table 3, 18 to 24 hours) of 3.33 µM, a minimal effective concentration ([1]; Table 4, 18 to 24 hours) of 3.33 µM and a minimal effective concentration ([2]; Table 3, 18 to 24 hours) of 30 µM. The minimal effective concentration ([2]; Table 4, 18 to 24 hours) was 30 µM and the melting point was 194 to 195 °C.

In the case of CCOCc1nc2c(N)nc3cccnc3c2n1CC(C)(C)O [Analog 1, 1-(4-amino-2-ethoxymethyl-1H-imidazo[4,5-c][1,5]naphthyridin-1-yl)-2-methylpropan-2-ol], the minimal effective concentration ([1]; Table 3, 18 to 24 hours) is reported as 0.12 µM, the minimal effective concentration ([1]; Table 4, 18 to 24 hours) is reported as 0.12 µM and the minimal effective concentration ([2]; Table 3, 18 to 24 hours) is reported as 1.11 µM. It also gave a minimal effective concentration ([2]; Table 4, 18 to 24 hours) of 1.11 µM and a melting point of 157 to 159 °C.

In the case of CC(C)(O)Cn1c(CO)nc2c(N)nc3cccnc3c21 [Example 6, 1-(4-Amino-2-hydroxymethyl-1H-imidazo[4,5-c][1,5]naphthyridin-1-yl)-2-methylpropan-2-ol], the minimal effective concentration ([1]; Table 3, 18 to 24 hours) is reported as 1.11 µM, the minimal effective concentration ([1]; Table 4, 18 to 24 hours) is reported as 1.11 µM and the minimal effective concentration ([2]; Table 3, 18 to 24 hours) is reported as 10 µM. For the same compound, the minimal effective concentration ([2]; Table 4, 18 to 24 hours) was 10 µM and the melting point was 235 to 237 °C.

With CC(C)(Cn1c(CO)nc2c(N)nc3cccnc3c21)NS(C)(=O)=O [Example 2, N-[2-(4-Amino-2-hydroxymethyl-1H-imidazo[4,5-c][1,5]naphthyridin-1-yl)-1,1-dimethylethyl]methanesulfonamide] the minimal effective concentration ([1]; Table 4, 18 to 24 hours) was 10 µM, the minimal effective concentration ([2]; Table 4, 18 to 24 hours) was 30 µM and the melting point was 268 to 271 °C.

Cc1nc2c(N)nc3cccnc3c2n1CC(C)(C)F [Analog 8, 1-(2-fluoro-2-methylpropyl)-2-methyl-1H-imidazo[4,5-c][1,5]naphthyridin-4-amine, reference compound] gave a minimal effective concentration ([1]; Table 4, 18 to 24 hours) of 0.37 µM and a minimal effective concentration ([2]; Table 4, 18 to 24 hours) of 10 µM.

With CS(=O)(=O)NCCn1c(CCO)nc2c(N)nc3cccnc3c21 [Example 5, N-{2-[4-Amino-2-(2-hydroxyethyl)-1H-imidazo[4,5-c][1,5]naphthyridin-1-yl]ethyl}methanesulfonamide] the minimal effective concentration ([1]; Table 4, 18 to 24 hours) was 30 µM, the minimal effective concentration ([2]; Table 4, 18 to 24 hours) was > 30 µM and the “Maximal Response TNF” value [2] was “* (Below the experimental background of 40 pg/mL)”. It also gave a melting point of 136 to 138 °C.

CCOCc1nc2c(N)nc3cccnc3c2n1CC(C)C [Analog 9, 2-ethoxymethyl-1-(2-methylpropyl)-1H-imidazo[4,5-c][1,5]naphthyridin-4-amine, reference compound] gave a minimal effective concentration ([1]; Table 4, 18 to 24 hours) of 0.12 µM and a minimal effective concentration ([2]; Table 4, 18 to 24 hours) of 1.11 µM.

CC(C)Cn1c(CO)nc2c(N)nc3cccnc3c21 [Example 96, [4-Amino-1-(2-methylpropyl)-1H-imidazo[4,5-c][1,5]naphthyridin-2-yl]methanol] gave a minimal effective concentration ([1]; Table 4, 18 to 24 hours) of 1.11 µM, a minimal effective concentration ([2]; Table 4, 18 to 24 hours) of 30 µM and a melting point of 226 to 228 °C.

For CC(C)(F)Cn1c(CO)nc2c(N)nc3cccnc3c21 [Example 14, [4-Amino-1-(2-fluoro-2-methylpropyl)-1H-imidazo[4,5-c][1,5]naphthyridin-2-yl]methanol], the minimal effective concentration ([1]; Table 4, 18 to 24 hours) was 1.11 µM, the minimal effective concentration ([2]; Table 4, 18 to 24 hours) was 3.33 µM and the melting point was 240 to 241 °C.

CCCc1nc2c(N)nc3cccnc3c2n1CC(C)(C)O [Analog 5, 1-(4-amino-2-propyl-1H-imidazo[4,5-c][1,5]naphthyridin-1-yl)-2-methylpropan-2-ol, reference compound] gave a minimal effective concentration ([1]; Table 4, 18 to 24 hours) of 0.12 µM and a minimal effective concentration ([2]; Table 4, 18 to 24 hours) of 1.11 µM.

Work on Cc1nc2c(N)nc3cccnc3c2n1CC(C)(C)O [Analog 3, 1-(4-amino-2-methyl-1H-imidazo[4,5-c][1,5]naphthyridin-1-yl)-2-methylpropan-2-ol, reference compound] yielded a minimal effective concentration ([1]; Table 4, 18 to 24 hours) of 0.37 µM and a minimal effective concentration ([2]; Table 4, 18 to 24 hours) of 3.33 µM.

For CCOCc1nc2c(N)nc3cccnc3c2n1CC(C)(C)NS(C)(=O)=O [Analog 7, N-[2-(4-amino-2-ethoxoxymethyl-1H-imidazo[4,5-c][1,5]naphthyridin-1-yl)-1,1-dimethylethyl]methanesulfonamide, reference compound], the minimal effective concentration ([1]; Table 4, 18 to 24 hours) was 0.04 µM, the “Maximal Response IFN” value ([1]; Table 4, background-subtracted, reference-adjusted) was 2465 pg/mL and the minimal effective concentration ([2]; Table 4, 18 to 24 hours) was 0.37 µM. The “Maximal Response TNF” value [2] was 9234 pg/mL.
